pIC50: −log10 of the molar value. Like-named read-outs stand apart in the source and are kept apart here.
Columns and labels:
[1] = target: T1, thrombin receptor (PAR-1) (Homo sapiens, UniProt P25116); assay: In vitro thrombin receptor binding assay (CHRF membranes); details: tritiated 721-40 radioligand, read-out: Bndg IC50 (Thrombin receptor binding)
T1 construct: CHRF membranes (Jones, Biochim. Biophys. Acta 1992, 1136, 272) are thawed from −70° C; endogenous in cells; host or cells: CHRF cell membranes
T1 sequence (P25116 22-425): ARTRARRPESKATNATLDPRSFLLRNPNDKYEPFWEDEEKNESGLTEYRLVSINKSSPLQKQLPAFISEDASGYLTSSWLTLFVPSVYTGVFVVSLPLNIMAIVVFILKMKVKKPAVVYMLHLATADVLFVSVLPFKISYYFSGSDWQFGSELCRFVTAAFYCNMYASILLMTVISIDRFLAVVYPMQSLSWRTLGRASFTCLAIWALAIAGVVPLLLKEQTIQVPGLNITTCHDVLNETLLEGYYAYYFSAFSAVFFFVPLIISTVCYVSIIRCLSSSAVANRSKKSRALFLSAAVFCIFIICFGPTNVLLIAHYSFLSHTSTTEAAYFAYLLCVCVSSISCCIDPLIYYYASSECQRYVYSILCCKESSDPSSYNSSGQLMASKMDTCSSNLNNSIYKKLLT
How it was run: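 CHRF cell membranes incubated 30 min with tritiated peptide agonist 721–40 and compound at 3.7 μg/mL final (0.6% DMSO) in HEPES/MgCl2/BSA buffer. Nonspecific binding defined with unlabeled 721–40; bound radioactivity counted after filtration onto PEI-treated filters.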

[2] = test system: gel-filtered platelets; assay: In vitro inhibition of thrombin-induced gel-filtered platelet aggregation; assay type: cell-based; details: human gel-filtered platelets, agonist thrombin 50 μL of 1 unit/mL, read-out: Thrmb IC50 (Thrombin-induced aggregation of gel-filtered platelets)
How it was run: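 Gel-filtered (Sepharose 2B) human platelets from citrated PRP, 2×10^7 per sample, in Tyrode's buffer pH 7.4 with BSA and added calcium, preincubated with test compound. Aggregation induced by thrombin (50 μL of 1 unit/mL) and followed as light transmission over 3 min. Inhibition is taken relative to control-treated platelets.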

Work on `NCCNC(=O)[C@H](Cc1cccs1)NC(=O)[C@H](Cc1ccc(Cl)cc1)NC(=O)c1ccc2c(CN3CCCC3)cn(Cc3c(Cl)cccc3Cl)c2c1` [Compound 177] yielded a pIC50 [1] of 6.21 and a pIC50 ([2]; Platelet) of 5.36.
`CN(Cc1cn(Cc2c(Cl)cccc2Cl)c2cc(NC(=O)N[C@@H](Cc3ccc(Cl)cc3)C(=O)N[C@@H](CCCN)C(=O)NC3Cc4ccccc4C3)ccc12)CC1OCCO1` [Compound 122] was tested, and the pIC50 [1] was 4.98 and the pIC50 ([2]; Platelet) was 5.46.
For `N=C(N)NCCC[C@H](NC(=O)[C@@H](Cc1ccc(F)c(F)c1)NC(=O)Nc1ccc2c(CN3CCCC3)cn(Cc3c(Cl)cccc3Cl)c2c1)C(=O)NCc1ccccc1` [Compound 84], the pIC50 [1] was 5.49 and the pIC50 [2] was 4.83.
`COc1ccc(C[C@H](NC(=O)Nc2ccc3c(CN4CCCC4)cn(Cc4ccc(C#N)cc4)c3c2)C(=O)N[C@@H](CCCNC(=N)N)C(=O)NCc2ccccc2)cc1` [Compound 13] was tested, and the pIC50 [1] was 5.35 and the pIC50 ([2]; Platelet) was 4.79.
For `NCCC[C@H](NC(=O)[C@H](Cc1ccc(F)c(F)c1)NC(=O)Nc1ccc2c(CN3CCCC3)cn(Cc3c(Cl)cccc3Cl)c2c1)C(=O)NCc1cccnc1` [Compound 116], the pIC50 [1] was 6.39 and the pIC50 ([2]; Platelet) was 5.96.
For `N=C(N)NCCC[C@@H](NC(=O)[C@H](Cc1ccc(F)c(F)c1)NC(=O)Nc1ccc2c(CN3CCCC3)cn(Cc3c(Cl)cccc3Cl)c2c1)C(=O)NCc1ccccc1` [Compound 69], the pIC50 [1] was 6.21 and the pIC50 [2] was 6.51.
`N=C(N)NCCC[C@H](NC(=O)Nc1ccc2c(CN3CCCC3)cn(Cc3c(Cl)cccc3Cl)c2c1)C(=O)N[C@@H](Cc1ccc(F)c(F)c1)C(=O)NCc1ccccc1` [Compound 80] showed a pIC50 [1] of 5.23 and a pIC50 ([2]; Platelet) of 4.95.
With `COc1ccc(C[C@H](NC(=O)Nc2ccc3c(CN4CCC4)cn(Cc4ccc(F)cc4)c3c2)C(=O)N[C@@H](CCCNC(=N)N)C(=O)NCc2ccccc2)cc1` [Compound 44] the pIC50 [1] was 5.48 and the pIC50 ([2]; Platelet) was 5.01.
Compound `CC(=O)NCCC[C@H](NC(=O)[C@H](Cc1ccc(F)c(F)c1)NC(=O)Nc1ccc2c(CN3CCCC3)cn(Cc3c(Cl)cccc3Cl)c2c1)C(=O)NCc1ccccc1` [Compound 94] has a pIC50 [1] of 6.09 and a pIC50 ([2]; Platelet) of 5.00.
`COc1ccc(C[C@H](NC(=O)Nc2ccc3c(CN4CCCC4)cn(Cc4ccccc4C)c3c2)C(=O)N[C@@H](CCCNC(=N)N)C(=O)NCc2ccccc2)cc1` [Compound 17] was tested, and the pIC50 [1] was 6.01 and the pIC50 ([2]; Platelet) was 6.38.
With `N=C(N)NCCC[C@H](NC(=O)[C@H](Cc1ccc(F)c(F)c1)NC(=O)Nc1ccc2c(CN3CCCC3)c(-c3ccccc3)n(Cc3ccc(F)cc3)c2c1)C(=O)NCc1ccc(F)cc1` [Compound 171, L-Argininamide, 3,4-difluoro-N-[[[1-[(4-fluorophenyl)methyl]-2-phenyl-3-(1-pyrrolidinylmethyl)-1H-indol-6-yl]amino]carbonyl]-L-phenylalanyl-N-[(4-fluorophenyl)methyl]-] the pIC50 [1] was 7.00 and the pIC50 ([2]; Platelet) was 6.00.
In the case of `NCCC[C@H](NC(=O)[C@H](Cc1ccc(F)c(F)c1)NC(=O)Nc1ccc2c(CN3CCCC3)cn(Cc3c(Cl)cccc3Cl)c2c1)C(=O)NCc1ccccc1` [Compound 66], the pIC50 [1] was 5.96 and the pIC50 ([2]; Platelet) was 6.62.
`COc1ccc(C[C@H](NC(=O)Nc2ccc3c(CN4CCCC4)cn(Cc4ccc(Cl)cc4)c3c2)C(=O)N[C@@H](CCCNC(=N)N)C(=O)NCc2ccccc2)cc1` [Compound 19] showed a pIC50 [1] of 5.80 and a pIC50 ([2]; Platelet) of 5.49.
With `NCCC[C@H](NC(=O)[C@H](Cc1ccc(F)c(F)c1)NC(=O)Nc1ccc2c(CN3CCCC3)cn(Cc3c(Cl)cccc3Cl)c2c1)C(=O)NCc1ccncc1` [Compound 98] the pIC50 [1] was 5.64 and the pIC50 ([2]; Platelet) was 5.74.
For `COc1ccc(C[C@H](NC(=O)Nc2ccc3c(CN4CCCC4)cn(Cc4ccc(OC)cc4)c3c2)C(=O)N[C@@H](CCCNC(=N)N)C(=O)NCc2ccccc2)cc1` [Compound 20], the pIC50 [1] was 4.77 and the pIC50 ([2]; Platelet) was 4.58.
With `COc1ccc(C[C@H](NC(=O)Nc2ccc3c(CN4CCCC4)cn(Cc4ccccc4)c3c2)C(=O)N[C@@H](CCCNC(=N)N)C(=O)NCc2ccccc2)cc1` [Compound 22] the pIC50 [1] was 5.40 and the pIC50 ([2]; Platelet) was 5.52.
Work on `NC(=O)NCCC[C@H](NC(=O)[C@H](Cc1cccc(F)c1)NC(=O)Nc1ccc2c(CN3CCCC3)cn(Cc3c(Cl)cccc3Cl)c2c1)C(=O)NCc1ccccc1` [Compound 77] yielded a pIC50 [1] of 6.21 and a pIC50 ([2]; Platelet) of 4.53.
In the case of `COc1ccc(C[C@H](NC(=O)Nc2ccc3c(c2)c(CN2CCSC2)cn3Cc2ccc(F)cc2)C(=O)N[C@@H](CCCNC(=N)N)C(=O)NCc2ccccc2)cc1` [Compound 163], the pIC50 [1] was 5.52 and the pIC50 ([2]; Platelet) was 4.52.
`CCN(Cc1ccncc1)C(=O)[C@H](CCCN)NC(=O)[C@H](Cc1ccc(F)c(F)c1)NC(=O)Nc1ccc2c(CN3CCCC3)cn(Cc3c(Cl)cccc3Cl)c2c1` [Compound 110] showed a pIC50 [1] of 5.54 and a pIC50 ([2]; Platelet) of 5.43.
Compound `Cc1cccc(Cn2cc(CN3CCCC3)c3ccc(NC(=O)N[C@@H](Cc4ccc(F)c(F)c4)C(=O)N[C@@H](Cc4cccs4)C(=O)NCCCN)cc32)c1` [Compound 153] has a pIC50 [1] of 4.57 and a pIC50 ([2]; Platelet) of 6.10.
Work on `N=C(N)NCCC[C@H](NC(=O)[C@H](Cc1ccccc1Cl)NC(=O)Nc1ccc2c(CN3CCCCC3)cn(Cc3c(Cl)cccc3Cl)c2c1)C(=O)NCc1ccccc1` [Compound 86] yielded a pIC50 [1] of 6.29 and a pIC50 ([2]; Platelet) of 5.54.
In the case of `NCCC[C@H](NC(=O)[C@H](Cc1ccc(F)c(F)c1)NC(=O)Nc1ccc2c(CN3CCCC3)cn(Cc3c(Cl)cccc3Cl)c2c1)C(=O)NCc1cccs1` [Compound 113], the pIC50 [1] was 6.07 and the pIC50 ([2]; Platelet) was 6.14.
`Cc1ccccc1Cn1cc(CN2CCCC2)c2ccc(NC(=O)N[C@@H](Cc3c(F)c(F)c(F)c(F)c3F)C(=O)N[C@@H](CCCNC(=N)N)C(=O)NCc3ccccc3)cc21` [Compound 50] was tested, and the pIC50 [1] was 5.12 and the pIC50 ([2]; Platelet) was 6.10.
`NCCNC(=O)[C@H](CSC(c1ccccc1)(c1ccccc1)c1ccccc1)NC(=O)[C@H](Cc1ccc(F)c(F)c1)NC(=O)Nc1ccc2c(CN3CCCC3)cn(Cc3c(Cl)cccc3Cl)c2c1` [Compound 151] gave a pIC50 [1] of 6.35 and a pIC50 [2] of 5.54.
Compound `Cc1ccccc1Cn1cc(CN2CCCC2)c2ccc(NC(=O)N[C@@H](Cc3cccc4ccccc34)C(=O)N[C@@H](CCCNC(=N)N)C(=O)NCc3ccccc3)cc21` [Compound 37] has a pIC50 [1] of 4.69 and a pIC50 ([2]; Platelet) of 5.36.
Compound `COc1ccc(C[C@H](NC(=O)Nc2ccc3c(CNC4CCCC4)cn(Cc4ccc(F)cc4)c3c2)C(=O)N[C@@H](CCCNC(=N)N)C(=O)NCc2ccccc2)cc1` [Compound 3] has a pIC50 [1] of 4.97 and a pIC50 ([2]; Platelet) of 4.67.
Compound `Cc1ccccc1Cn1cc(CN2CCCC2)c2ccc(NC(=O)N[C@@H](Cc3ccc(Cl)cc3)C(=O)N[C@@H](CCCNC(=N)N)C(=O)NCc3ccccc3)cc21` [Compound 48] has a pIC50 [1] of 5.12 and a pIC50 ([2]; Platelet) of 6.30.
`NCC[C@H](NC(=O)[C@H](Cc1ccc(F)c(F)c1)NC(=O)Nc1ccc2c(CN3CCCC3)cn(Cc3c(Cl)cccc3Cl)c2c1)C(=O)NCc1ccc([N+](=O)[O-])cc1` [Compound 158] showed a pIC50 [1] of 5.74 and a pIC50 [2] of 6.13.
With `CCN(CC)Cc1cn(Cc2cccc(C)c2)c2cc(NC(=O)N[C@@H](Cc3ccc(OC(C)C)cc3)C(=O)N[C@@H](CCCNC(=N)N)C(=O)NCc3ccccc3)ccc12` [Compound 43] the pIC50 [1] was 5.30 and the pIC50 ([2]; Platelet) was 4.47.
`O=C(Nc1ccc2c(CN3CCCC3)cn(Cc3c(Cl)cccc3Cl)c2c1)N[C@@H](Cc1ccc(F)c(F)c1)C(=O)N[C@@H](CCCCNC(=O)c1cccnc1)C(=O)NCc1ccccc1` [Compound 68] showed a pIC50 [1] of 5.19 and a pIC50 ([2]; Platelet) of 5.33.
`N=C(N)NCCC[C@H](NC(=O)[C@H](Cc1ccc([N+](=O)[O-])cc1)NC(=O)Nc1ccc2c(CN3CCCC3)cn(Cc3ccc(F)cc3)c2c1)C(=O)NCc1ccccc1` [Compound 49] showed a pIC50 [1] of 6.00 and a pIC50 ([2]; Platelet) of 5.21.

Reference: patent publication US7183252B2, “Indole peptidomimetics as thrombin receptor antagonists” (Ortho-McNeil Pharmaceutical, Inc., priority 1999, dated 2007)
